Measurements: the NIST ThermoML archive (doi:10.1021/je800664z)

Experiment: refractive index (Na D-line) (dimensionless); xn = mol fraction of the nth substance listed
Details: 101 kPa, Liquid, Standard Abbe refractometry

C1COCO1 [1,3-dioxolane] + CC(C)O
refractive index
Details | 288.15 K | 298.15 K | 308.15 K
x1 = 0.05 | 1.38037 | 1.37601 | 1.37126
x1 = 0.1 | 1.38139 | 1.37686 | 1.37207
x1 = 0.15 | 1.38242 | 1.37776 | 1.37295
x1 = 0.2 | 1.38343 | 1.37869 | 1.37388
x1 = 0.25 | 1.38447 | 1.37966 | 1.37483
x1 = 0.3001 | 1.3855 | 1.38065 | 1.37579
x1 = 0.35 | 1.38655 | 1.38168 | 1.3768
x1 = 0.4 | 1.38763 | 1.38274 | 1.37785
x1 = 0.45 | 1.38875 | 1.38384 | 1.37894
x1 = 0.5 | 1.3899 | 1.38496 | 1.38006
x1 = 0.55 | 1.39107 | 1.38611 | 1.38121
x1 = 0.6 | 1.39227 | 1.38729 | 1.38238
x1 = 0.65 | 1.39348 | 1.3885 | 1.38359
x1 = 0.7001 | 1.39473 | 1.38975 | 1.38483
x1 = 0.75 | 1.396 | 1.39103 | 1.38608
x1 = 0.8 | 1.39731 | 1.39234 | 1.38737
x1 = 0.85 | 1.39862 | 1.39368 | 1.38872
x1 = 0.9 | 1.39993 | 1.39509 | 1.39013
x1 = 0.95 | 1.40123 | 1.39653 | 1.39165
x1 = 1 | 1.40252 | 1.39795 | 1.39322
